Patent US6881741B2 (ViroChem Pharma Inc., priority 2001, dated 2005)
Counter-ions that a name gives are not always drawn. Like-named read-outs stand apart in the source and are kept apart here.

Target: recombinant HCV NS5B (HCV RNA-dependent RNA polymerase) (Hepatitis C virus genotype 1b, UniProt P26663)
Test: biochemical
[1] = related polymerase activity (Example 27 list), read-out: IC50
[2] = HCV polymerase activity, list of compounds of Example 27, read-out: IC50 (polymerase activity)

recombinant HCV NS5B (HCV RNA-dependent RNA polymerase), sequence (P26663 2420-3010 limits assumed): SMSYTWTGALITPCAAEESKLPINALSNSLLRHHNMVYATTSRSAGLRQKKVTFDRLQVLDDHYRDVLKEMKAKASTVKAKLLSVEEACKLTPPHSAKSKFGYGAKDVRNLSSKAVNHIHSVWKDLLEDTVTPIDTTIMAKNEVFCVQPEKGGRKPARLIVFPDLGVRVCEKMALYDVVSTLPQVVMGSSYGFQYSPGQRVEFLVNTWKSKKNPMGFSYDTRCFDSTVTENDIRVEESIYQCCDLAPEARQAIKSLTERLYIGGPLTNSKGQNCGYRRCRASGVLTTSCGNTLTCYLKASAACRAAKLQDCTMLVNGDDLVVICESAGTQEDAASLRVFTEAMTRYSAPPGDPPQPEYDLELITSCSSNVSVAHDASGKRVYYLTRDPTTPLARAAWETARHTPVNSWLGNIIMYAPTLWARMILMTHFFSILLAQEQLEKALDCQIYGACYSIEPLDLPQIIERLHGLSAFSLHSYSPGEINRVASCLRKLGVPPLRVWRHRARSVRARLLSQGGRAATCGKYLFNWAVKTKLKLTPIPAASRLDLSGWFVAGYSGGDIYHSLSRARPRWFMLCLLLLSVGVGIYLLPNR

Row | SMILES | IC50 [1] [µM] | IC50 [2] [µM]
1 | CN(C(=O)c1ccc(C(F)(F)F)cc1)c1cc(-c2ccccc2)sc1C(=O)O [Compound 209, 3-[4-(TRIFLUOROMETHYL-BENZOYL)METHYLAMINE]-5-PHENYL-THIOPHENE-2-CARBOXYLIC ACID] | 5 to 20 | –
2 | O=C(NCCCc1ccccc1)Nc1cc(-c2ccccc2)sc1C(=O)O [Compound 179, 5-PHENYL-3-[3-(3-PHENYL-PROPYL)-UREIDO]-THIOPHENE-2-CARBOXYLIC ACID] | 5 to 20 | –
3 | CC1(C)OCC(N(C(=O)c2ccc(Cl)cc2Cl)c2cc(-c3ccccc3)sc2C(=O)O)CO1 [Compound 535, 3-[(2,4-DICHLORO-BENZOYL)-(2,2- DIMETHYL-[1,3]DIOXAN-5-YL)-AMINO]-5- PHENYL-THIOPHENE-2-CARBOXYLIC ACID] | – | < 5
4 | CC(C)(C)OC(=O)N1CCCC(N(C(=O)c2ccc(Cl)cc2Cl)c2cc(-c3ccccc3)sc2C(=O)O)C1 (stereo not shown) [Compound 511, 3-[(2-CARBOXY-5-PHENYL-THIOPHEN-3- YL)-(2,4-DICHLORO-BENZOYL)-AMINO]- PIPERIDINE-1-CARBOXYLIC ACID #TERT!-BUTYL ESTER] | – | < 5
5 | Cc1ccc(C(=O)N(c2cc(-c3ccccc3)sc2C(=O)O)C(C)C)cc1 [Compound 211, 3-[ISOPROPYL-(4-METHYL-BENZOYL)-AMINO]-5-PHENYL-THIOPHENE-2-CARBOXYLIC ACID] | < 5 | –
6 | CC(=O)Nc1nc(C)c(S(=O)(=O)Nc2cc(-c3ccccc3)sc2C(=O)O)s1 [Compound 139, 3-(2-ACETYLAMINO-4-METHYL-THIAZOLE-5-SULFONYLAMINO)-5-PHENYL-THIOPHENE-2-CARBOXYLIC ACID] | 5 to 20 | –
7 | Cc1ccc(C(=O)N(c2cc(-c3ccccc3)sc2C(=O)O)C2CCN(C(=O)OC(C)(C)C)CC2)cc1 [Compound 364, 4-[(2-CARBOXY-5-PHENYL-THIOPHEN-3- YL)-(4-METHYL-BENZOYL)-AMINO]- PIPERIDINE-1-CARBOXYLIC ACID #TERT!-BUTYL ESTER] | < 5 | –
8 | C=CCN(C(=O)Cc1ccc(F)cc1F)c1cc(-c2ccccc2)sc1C(=O)O [Compound 351, 3-{ALLYL-[2-(2,4-DIFLUORO-PHENYL)- ACETYL]-AMINO}-5-PHENYL-THIOPHENE- 2-CARBOXYLIC ACID] | 5 to 20 | –
9 | N#Cc1ccccc1S(=O)(=O)Nc1cc(-c2ccccc2)sc1C(=O)O [Compound 54, 3-(2-CYANO-BENZENESULFONYLAMINO)-5-PHENYL-THIOPHENE-2-CARBOXYLIC ACID] | < 5 | –
10 | CC1CCCCC1C(=O)N(c1cc(-c2ccccc2)sc1C(=O)O)C(C)C (stereo not shown) [Compound 378, 3-[ISOPROPYL-(2-METHYL- CYCLOHEXANECARBONYL)-AMINO]-5- PHENYL-THIOPHENE-2-CARBOXYLIC ACID] | 5 to 20 | –
11 | O=C(Nc1cc(-c2ccccc2)sc1C(=O)O)c1ccc(Cl)cc1 [Compound 72, 3-(4-CHLORO-BENZOYLAMINO)-5-PHENYL-THIOPHENE-2-CARBOXYLIC ACID] | 5 to 20 | –
12 | CC(C)CC(=O)N(Cc1ccc(Cl)cc1)c1cc(-c2ccccc2)sc1C(=O)O [Compound 458, 3-[(4-CHLORO-BENZYL)-(3-METHYL- BUTYRYL)-AMINO]-5-PHENYL- THIOPHENE-2-CARBOXYLIC ACID] | – | 5 to 20
13 | Cc1cccc(C)c1S(=O)(=O)Nc1cc(-c2ccccc2)sc1C(=O)O [Compound 285, 3-(2,6-DIMETHYL-BENZENESULFONYLAMINO)-5-PHENYL-THIOPHENE-2-CARBOXYLIC ACID] | < 5 | –
14 | CCCCC(=O)N(C)c1cc(-c2ccccc2)sc1C(=O)O [Compound 389, 3-(METHYL-PENTANOYL-AMINO)-5- PHENYL-THIOPHENE-2-CARBOXYLIC ACID] | < 5 | –
15 | COc1ccc(-c2cc(NS(=O)(=O)c3ccc(C)cc3)c(C(N)=O)s2)cc1 [Compound 565, 5-(4-METHOXY-PHENYL)-3-(TOLUENE-4- SULFONYLAMINO)-THIOPHENE-2- CARBOXYLIC ACID AMIDE] | – | 5 to 20
16 | Cc1ccc(C(=O)N(Cc2ccc(Cl)cc2)c2cc(-c3ccccc3)sc2C(=O)O)cc1 [Compound 341, 3-[(4-CHLORO-BENZYL)-(4-METHYL- BENZOYL)-AMINO]-5-PHENYL- THIOPHENE-2-CARBOXYLIC ACID] | < 5 | –
17 | Cc1cccc(S(=O)(=O)Nc2cc(-c3ccccc3)sc2C(=O)O)c1 [Compound 16, 5-PHENYL-3-(TOLUENE-3-SULFONYLAMINO)-THIOPHENE-2-CARBOXYLIC ACID] | 5 to 20 | –
18 | CC(C)N(C(=O)c1ccc(C#N)cc1)c1cc(-c2ccccc2)sc1C(=O)O [Compound 311, 3-[(4-CYANO-BENZOYL)-ISOPROPYL- AMINO]-5-PHENYL-THIOPHENE-2- CARBOXYLIC ACID] | 5 to 20 | –
19 | COC(=O)c1sc(-c2ccccc2)cc1NC(=O)c1ccccc1C(=O)O [Compound 51, 3-(2-CARBOXY-BENZOYLAMINO)-5-PHENYL-THIOPHENE-2-CARBOXYLIC ACID METHYL ESTER] | 5 to 20 | –
20 | C/C=C/C(=O)N(CC)c1cc(-c2ccccc2)sc1C(=O)O [Compound 394, 3-(BUT-2-ENOYL-ETHYL-AMINO)-5- PHENYL-THIOPHENE-2-CARBOXYLIC ACID] | 5 to 20 | –

Row | SMILES | IC50 [1] [µM] | IC50 [2] [µM]
21 | Cc1ccc(S(=O)(=O)Nc2cc(-c3ccccc3)sc2C(=O)O)c([N+](=O)[O-])c1 [Compound 177, 3-(4-METHYL-2-NITRO-BENZENESULFONYLAMINO)-5-PHENYL-THIOPHENE-2-CARBOXYLIC ACID] | 5 to 20 | –
22 | O=C(O)c1sc(-c2ccc([N+](=O)[O-])cc2)cc1NS(=O)(=O)c1ccccn1 [Compound 129, 5-(4-NITRO-PHENYL)-3-(PYRIDINE-2-SULFONYLAMINO)-THIOPHENE-2-CARBOXYLIC ACID] | 5 to 20 | –
23 | CC(C)N(C(=O)c1ccc(Cl)cc1Cl)c1cc(-c2cc3ccccc3o2)sc1C(=O)O [Compound 376, 5-BENZOFURAN-2-YL-3-[(2,4-DICHLORO- BENZOYL)-ISOPROPYL-AMINO]- THIOPHENE-2-CARBOXYLIC ACID] | < 5 | –
24 | Cc1cccc(CN(C(=O)CC2CCCC2)c2cc(-c3ccccc3)sc2C(=O)O)c1 [Compound 445, 3-[(2-CYCLOPENTYL-ACETYL)-(3- METHYL-BENZYL)-AMINO]-5-PHENYL- THIOPHENE-2-CARBOXYLIC ACID] | – | < 5
25 | COc1cccc(CN(C(=O)CC(C)C)c2cc(-c3ccccc3)sc2C(=O)O)c1 [Compound 472, 3-[(3-METHOXY-BENZYL)-(3-METHYL- BUTYRYL)-AMINO]-5-PHENYL- THIOPHENE-2-CARBOXYLIC ACID] | – | < 5
26 | O=C(O)c1sc(-c2ccccc2)cc1NC(=O)N1CCN(c2ccc(F)cc2)CC1 [Compound 157, 3-{[4-(4-FLUORO-PHENYL)-PIPERAZINE-1-CARBONYL]-AMINO}-5-PHENYL-THIOPHENE-2-CARBOXYLIC ACID] | > 20 | –
27 | C=CCN(C(=O)Cc1ccc(F)cc1Cl)c1cc(-c2ccccc2)sc1C(=O)O [Compound 349, 3-{ALLYL-[2-(2-CHLORO-4-FLUORO- PHENYL)-ACETYL]-AMINO}-5-PHENYL- THIOPHENE-2-CARBOXYLIC ACID] | 5 to 20 | –
28 | Cc1cc(C)c(S(=O)(=O)Nc2cc(-c3ccccc3)sc2C(=O)O)c(C)c1 [Compound 298, 5-PHENYL-3-(2,4,6-TRIMETHYL- BENZENESULFONYLAMINO)- THIOPHENE-2-CARBOXYLIC ACID] | < 5 | –
29 | O=C(O)c1sc(-c2ccccc2)cc1N(Cc1ccccc1)C(=O)C1CCC1 [Compound 489, 3-(BENZYL-CYCLOBUTANECARBONYL- AMINO)-5-PHENYL-THIOPHENE-2- CARBOXYLIC ACID] | – | < 5
30 | CCC(=O)N(Cc1ccccc1)c1cc(-c2ccccc2)sc1C(=O)O [Compound 451, 3-(BENZYL-PROPIONYL-AMINO)-5- PHENYL-THIOPHENE-2-CARBOXYLIC ACID] | – | < 5
31 | Cc1ccccc1S(=O)(=O)Nc1cc(-c2ccc(C(=O)O)cc2)sc1C(=O)O [Compound 248, 5-(4-CARBOXY-PHENYL)-3-(TOLUENE-2-SULFONYLAMINO)-THIOPHENE-2-CARBOXYLIC ACID] | < 5 | –
32 | Cc1ccccc1S(=O)(=O)Nc1cc(-c2ccoc2)sc1C(=O)O [Compound 126, 5-FURAN-3-YL-3-(TOLUENE-2-SULFONYLAMINO)-THIOPHENE-2-CARBOXYLIC ACID] | < 5 | –
33 | O=C(O)c1sc(-c2ccccc2)cc1N(C(=O)c1ccc(Cl)cc1Cl)C1CCN(C(=O)c2ccc(Cl)cc2Cl)CC1 [Compound 363, 3-[(2,4-DICHLORO-BENZOYL)-[1-(2,4- DICHLORO-BENZOYL)-PIPERIDIN-4-YL]- AMINO)-5-PHENYL-THIOPHENE-2- CARBOXYLIC ACID] | < 5 | –
34 | CC(C)C(=O)N(Cc1ccccc1Cl)c1cc(-c2ccccc2)sc1C(=O)O [Compound 421, 3-[(2-CHLORO-BENZYL)-ISOBUTYRYL- AMINO]-5-PHENYL-THIOPHENE-2- CARBOXYLIC ACID] | – | 5 to 20
35 | O=C(O)c1sc(-c2ccccc2)cc1NC(=O)N1CCN(Cc2ccc(Cl)cc2)CC1 [Compound 183, 3-{[4-(4-CHLORO-BENZYL)-PIPERAZINE-1-CARBONYL]-AMINO}-5-PHENYL-THIOPHENE-2-CARBOXYLIC ACID HYDROCHLORIDE] | 5 to 20 | –
36 | Cc1ccccc1S(=O)(=O)Nc1cc(-c2cccs2)sc1C(=O)O [Compound 56, 4-(TOLUENE-2-SULFONYLAMINO)-[2,2′]BITHIOPHENYL-5-CARBOXYLIC ACID] | < 5 | –
37 | COCC(=O)N(Cc1ccccc1)c1cc(-c2ccccc2)sc1C(=O)O [Compound 452, 3-[BENZYL-(2-METHOXY-ACETYL)- AMINO]-5-PHENYL-THIOPHENE-2- CARBOXYLIC ACID] | – | < 5
38 | Cc1ccccc1S(=O)(=O)Nc1cc(-c2ccc(C(=O)O)cc2)sc1C(=O)OC(C)(C)C [Compound 239, 5-(4-CARBOXY-PHENYL)-3-(TOLUENE-2-SULFONYLAMINO)-THIOPHENE-2-CARBOXYLIC ACID TERT-BUTYL ESTER] | 5 to 20 | –
39 | O=C(O)c1sc(-c2ccccc2)cc1N(Cc1ccc([N+](=O)[O-])cc1)C(=O)CC1CCCC1 [Compound 443, 3-[(2-CYCLOPENTYL-ACETYL)-(4-NITRO- BENZYL)-AMINO]-5-PHENYL-THIOPHENE- 2-CARBOXYLIC ACID] | – | < 5
40 | Cc1ccc(C(=O)N(C)c2cc(-c3ccc(F)c(F)c3)sc2C(=O)O)cc1 [Compound 270, 5-(3,4-DIFLUORO-PHENYL)-3-[METHYL-(4-METHYL-BENZOYL)-AMINO]-THIOPHENE-2-CARBOXYLIC ACID] | < 5 | –
